Measurements taken from ChEMBL document CHEMBL3885861, “Open TG-GATES”.

Species on record: Rattus norvegicus
Test: Open TG-GATES - Regimen: Single
Assay type: toxicity, organism-based, Sprague-Dawley
Set-up: regimen Single, gender Male, age 6 weeks
Conditions: in vivo, po, 25 mg/kg, route gavage, dose level Middle; for APTT / Bas / Eos / Fbg / Hb / Ht / Lym / MCH / MCHC / MCV / Mono / Neu / PT / Plat / RBC / Ret / WBC: tissue Blood; for KIDNEY_L / KIDNEY_R / KIDNEY_TOTAL: tissue Kidney; for LIVER: tissue Liver; for A/G / ALP / ALT / AST / BUN / CRE / Ca / Cl / DBIL / GLC / IP / K / LDH / Na / PL / RALB / TBIL / TC / TG / TP / gamma-GTP: tissue Plasma

With `NC1=NC(=O)C(c2ccccc2)O1` (configuration not stated) [PEMOLINE] the TERMINAL_BW (3 h) was 210.1 g, the APTT (3 h) was 15.6 s and the Bas (3 h) was 0%. It also gave an Eos (3 h) of 1%, a Fbg (3 h) of 280.4 mg/dL and a Hb (3 h) of 13.5 g/dL. It also gave a Ht (3 h) of 39.8%, a Lym (3 h) of 74.2% and an MCH (3 h) of 21.3 pg. The MCHC (3 h) was 33.8%, the MCV (3 h) was 62.9 fL and the Mono (3 h) was 3.8%. The Neu (3 h) was 20.6%, the PT (3 h) was 13.1 s and the Plat (3 h) was 115 x10_4/uL. The RBC (3 h) was 633.2 x10_4/ul, the Ret (3 h) was 8.8% and the WBC (3 h) was 86.4 x10_2/uL. For the same molecule, the KIDNEY_L (3 h) was 0.9 g, the KIDNEY_R (3 h) was 0.9 g and the KIDNEY_TOTAL (3 h) was 1.8 g. The LIVER (3 h) was 9.3 g, the A/G (3 h) was 1 and the ALP (3 h) was 1568.2 IU/L. For the same molecule, the ALT (3 h) was 42.6 IU/L, the AST (3 h) was 86 IU/L and the BUN (3 h) was 8.2 mg/dL. For the same molecule, the CRE (3 h) was 0.2 mg/dL, the Ca (3 h) was 10.5 mg/dL and the Cl (3 h) was 106.4 meq/L. The DBIL (3 h) was 0.01 mg/dL, the GLC (3 h) was 185.2 mg/dL and the IP (3 h) was 8.5 mg/dL. It also gave a K (3 h) of 3.8 meq/L, an LDH (3 h) of 104 IU/L and a Na (3 h) of 140.4 meq/L. The PL (3 h) was 122.4 mg/dL, the RALB (3 h) was 2.7 g/dL and the TBIL (3 h) was 0.044 mg/dL. The TC (3 h) was 72.4 mg/dL, the TG (3 h) was 39.6 mg/dL and the TP (3 h) was 5.4 g/dL. The gamma-GTP (3 h) was 1.4 IU/L, the TERMINAL_BW (6 h) was 209.6 g and the APTT (6 h) was 17.7 s. For the same molecule, the Bas (6 h) was 0.2%, the Eos (6 h) was 1% and the Fbg (6 h) was 316.4 mg/dL. For the same molecule, the Hb (6 h) was 13.6 g/dL, the Ht (6 h) was 40% and the Lym (6 h) was 72.2%. It also gave an MCH (6 h) of 21.7 pg, an MCHC (6 h) of 34% and an MCV (6 h) of 63.7 fL. The Mono (6 h) was 2.6%, the Neu (6 h) was 23.6% and the PT (6 h) was 13.4 s. For the same molecule, the Plat (6 h) was 122.6 x10_4/uL, the RBC (6 h) was 629.6 x10_4/ul and the Ret (6 h) was 9.8%. The WBC (6 h) was 101.7 x10_2/uL, the KIDNEY_L (6 h) was 0.9 g and the KIDNEY_R (6 h) was 0.9 g. The KIDNEY_TOTAL (6 h) was 1.8 g, the LIVER (6 h) was 8.2 g and the A/G (6 h) was 1. For the same molecule, the ALP (6 h) was 1568 IU/L, the ALT (6 h) was 44 IU/L and the AST (6 h) was 81.8 IU/L. For the same molecule, the BUN (6 h) was 7 mg/dL, the CRE (6 h) was 0.2 mg/dL and the Ca (6 h) was 10.4 mg/dL. For the same molecule, the Cl (6 h) was 108.2 meq/L, the DBIL (6 h) was 0.01 mg/dL and the GLC (6 h) was 179.2 mg/dL. The IP (6 h) was 9.4 mg/dL, the K (6 h) was 3.5 meq/L and the LDH (6 h) was 67.6 IU/L. It also gave a Na (6 h) of 140.8 meq/L, a PL (6 h) of 121.4 mg/dL and an RALB (6 h) of 2.8 g/dL. For the same molecule, the TBIL (6 h) was 0.052 mg/dL, the TC (6 h) was 77 mg/dL and the TG (6 h) was 15.2 mg/dL. For the same molecule, the TP (6 h) was 5.5 g/dL, the gamma-GTP (6 h) was 1 IU/L and the TERMINAL_BW (9 h) was 212 g. It also gave an APTT (9 h) of 16 s, a Bas (9 h) of 0% and an Eos (9 h) of 0.6%. It also gave a Fbg (9 h) of 316.2 mg/dL, a Hb (9 h) of 13.7 g/dL and a Ht (9 h) of 40.4%. It also gave a Lym (9 h) of 75.2%, an MCH (9 h) of 21.7 pg and an MCHC (9 h) of 33.8%. For the same molecule, the MCV (9 h) was 64.2 fL, the Mono (9 h) was 2.4% and the Neu (9 h) was 21.2%. It also gave a PT (9 h) of 13.4 s, a Plat (9 h) of 112 x10_4/uL and an RBC (9 h) of 630.8 x10_4/ul. It also gave a Ret (9 h) of 9.7%, a WBC (9 h) of 91.7 x10_2/uL and a KIDNEY_L (9 h) of 0.9 g. The KIDNEY_R (9 h) was 0.9 g, the KIDNEY_TOTAL (9 h) was 1.7 g and the LIVER (9 h) was 8.1 g. For the same molecule, the A/G (9 h) was 1, the ALP (9 h) was 1640.8 IU/L and the ALT (9 h) was 40.2 IU/L. The AST (9 h) was 83.4 IU/L, the BUN (9 h) was 8.6 mg/dL and the CRE (9 h) was 0.2 mg/dL. For the same molecule, the Ca (9 h) was 10.6 mg/dL, the Cl (9 h) was 106.4 meq/L and the DBIL (9 h) was 0.014 mg/dL. For the same molecule, the GLC (9 h) was 191.6 mg/dL, the IP (9 h) was 9.7 mg/dL and the K (9 h) was 3.8 meq/L. For the same molecule, the LDH (9 h) was 94.4 IU/L, the Na (9 h) was 141.4 meq/L and the PL (9 h) was 137 mg/dL. The RALB (9 h) was 2.8 g/dL, the TBIL (9 h) was 0.044 mg/dL and the TC (9 h) was 86.8 mg/dL. For the same molecule, the TG (9 h) was 27.2 mg/dL, the TP (9 h) was 5.6 g/dL and the gamma-GTP (9 h) was 1.4 IU/L. It also gave a TERMINAL_BW (24 h) of 209.6 g, an APTT (24 h) of 16.3 s and a Bas (24 h) of 0%. The Eos (24 h) was 1%, the Fbg (24 h) was 290 mg/dL and the Hb (24 h) was 12.9 g/dL. It also gave a Ht (24 h) of 37.6%, a Lym (24 h) of 80.4% and an MCH (24 h) of 21.9 pg. It also gave an MCHC (24 h) of 34.3%, an MCV (24 h) of 63.7 fL and a Mono (24 h) of 3.6%. It also gave a Neu (24 h) of 14.4%, a PT (24 h) of 13 s and a Plat (24 h) of 107.2 x10_4/uL. The RBC (24 h) was 589 x10_4/ul, the Ret (24 h) was 8.2% and the WBC (24 h) was 73.1 x10_2/uL. The KIDNEY_L (24 h) was 0.9 g, the KIDNEY_R (24 h) was 0.9 g and the KIDNEY_TOTAL (24 h) was 1.8 g. It also gave an LIVER (24 h) of 9.3 g, an A/G (24 h) of 1 and an ALP (24 h) of 1533.8 IU/L. The ALT (24 h) was 46.6 IU/L, the AST (24 h) was 87.8 IU/L and the BUN (24 h) was 15.4 mg/dL. It also gave a CRE (24 h) of 0.2 mg/dL, a Ca (24 h) of 10.6 mg/dL and a Cl (24 h) of 104.4 meq/L. It also gave a DBIL (24 h) of 0.014 mg/dL, a GLC (24 h) of 176.8 mg/dL and an IP (24 h) of 8.8 mg/dL. For the same molecule, the K (24 h) was 4.2 meq/L, the LDH (24 h) was 71.6 IU/L and the Na (24 h) was 140.6 meq/L. It also gave a PL (24 h) of 128.2 mg/dL, an RALB (24 h) of 2.7 g/dL and a TBIL (24 h) of 0.032 mg/dL. For the same molecule, the TC (24 h) was 78 mg/dL, the TG (24 h) was 50 mg/dL and the TP (24 h) was 5.4 g/dL. For the same molecule, the gamma-GTP (24 h) was 1 IU/L.
